Legend:
[1] = target: PIM2 (Homo sapiens (Human), UniProt Q9P1W9); test: Pim2 ATP depletion assay; type: biochemical; details: 4 μM ATP, 10 μM BAD peptide
Protocol: The activity of PIM2 is measured using a luciferase-luciferin based ATP detection reagent to quantify ATP depletion resulting from kinase-catalyzed phosphoryl transfer to a peptide substrate. Compounds to be tested are dissolved in 100% DMSO and directly distributed into white 384-well plates at 0.5 μl per well. To start the reaction, 10 μl of 10 nM Pim2 kinase and 20 μM BAD peptide (RSRHSSYPAGT-OH) in assay buffer (50 mM HEPES pH 7.5, 5 mM MgCl2, 1 mM DTT, 0.05% BSA) is added into each well. After 15 minutes, 10 μl of 8 μM ATP in assay buffer is added. Final assay concentrations are 5 nM PIM2, 4 μM ATP, 10 μM BAD peptide and 2.5% DMSO. The reaction is performed until approximately 50% of the ATP is depleted, then stopped with the addition of 20 μl KinaseGlo Plus (Promega Corporation) solution. The stopped reaction is incubated for 10 minutes and the remaining ATP detected via luminescence on the Victor2 (Perkin Elmer).

[2] = target: PIM1 (Homo sapiens (Human), UniProt P11309); test: Pim1 ATP depletion assay; type: biochemical; details: 20 μM ATP, 40 μM BAD peptide
Sequence of PIM1 (P11309 whole entry, species assumed): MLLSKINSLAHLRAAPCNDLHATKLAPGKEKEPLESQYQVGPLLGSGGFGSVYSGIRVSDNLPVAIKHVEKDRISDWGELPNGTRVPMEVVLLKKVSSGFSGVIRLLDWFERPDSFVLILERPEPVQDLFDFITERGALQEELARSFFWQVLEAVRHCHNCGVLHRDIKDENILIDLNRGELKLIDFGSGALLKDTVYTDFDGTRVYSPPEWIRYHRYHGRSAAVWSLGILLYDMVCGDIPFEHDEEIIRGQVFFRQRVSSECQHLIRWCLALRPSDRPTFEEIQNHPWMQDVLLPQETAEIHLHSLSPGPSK
Protocol: The activity of PIM1 is measured using a luciferase-luciferin based ATP detection reagent to quantify ATP depletion resulting from kinase-catalyzed phosphoryl transfer to a peptide substrate. Compounds to be tested are dissolved in 100% DMSO and directly distributed into white 384-well plates at 0.5 μA per well. To start the reaction, 10 μl of 5 nM Pim1 kinase and 80 μM BAD peptide (RSRHSSYPAGT-OH) in assay buffer (50 mM HEPES pH 7.5, 5 mM MgCl2, 1 mM DTT, 0.05% BSA) is added into each well. After 15 minutes, 10 μl of 40 μM ATP in assay buffer is added. Final assay concentrations are 2.5 nM PIM1, 20 μM ATP, 40 μM BAD peptide and 2.5% DMSO. The reaction is performed until approximately 50% of the ATP is depleted, then stopped with the addition of 20 μl KinaseGlo Plus (Promega Corporation) solution. The stopped reaction is incubated for 10 minutes and the remaining ATP detected via luminescence on the Victor2 (Perkin Elmer). […] IC50, the half maximal inhibitory concentration, represents the concentration of a test compound that is required for 50% inhibition of its target in vitro.

[3] = target: PIM3 (Homo sapiens (Human), UniProt Q86V86); test: Pim3 ATP depletion assay; type: biochemical; details: 40 μM ATP, 100 μM BAD peptide
Protocol: The activity of PIM3 is measured using a luciferase-luciferin based ATP detection reagent to quantify ATP depletion resulting from kinase-catalyzed phosphoryl transfer to a peptide substrate. Compounds to be tested are dissolved in 100% DMSO and directly distributed into white 384-well plates at 0.5 μA per well. To start the reaction, 10 μl of 10 nM Pim3 kinase and 200 μM BAD peptide (RSRHSSYPAGT-OH) in assay buffer (50 mM HEPES pH 7.5, 5 mM MgCl2, 1 mM DTT, 0.05% BSA) is added into each well. After 15 minutes, 10 μl of 80 μM ATP in assay buffer is added. Final assay concentrations are 5 nM PIM1, 40 μM ATP, 100 μM BAD peptide and 2.5% DMSO. The reaction is performed until approximately 50% of the ATP is depleted, then stopped by the addition of 20 μl KinaseGlo Plus (Promega Corporation) solution. The stopped reaction is incubated for 10 minutes and the remaining ATP detected via luminescence on the Victor2 (Perkin Elmer).

[4] = test system: KMS11 cells; test: Cell proliferation assay; type: cell-based; details: KMS-11, 72 h; KMS11 human myeloma cell line, 3 days, CellTiter-Glo
Protocol: KMS11 (human myeloma cell line), were cultured in IMDM supplemented with 10% FBS, sodium pyruvate and antibiotics. Cells were plated in the same medium at a density of 2000 cells per well into 96 well tissue culture plates, with outside wells vacant, on the day of assay. MM1.s (human myeloma cell line), were cultured in RPMI1640 supplemented with 10% FBS, sodium pyruvate and antibiotics. Cells were plated in the same medium at a density of 5000 cells per well into 96 well tissue culture plates, with outside wells vacant, on the day of assay.
Test compounds supplied in DMSO were diluted into DMSO at 500 times the desired final concentrations before dilution into culture media to 2 times final concentrations. Equal volumes of 2× compounds were added to the cells in 96 well plates and incubated at 37° C. for 3 days.
After 3 days plates were equilibrated to room temperature and equal volume of CellTiter-Glow Reagent (Promega) was added to the culture wells. The plates were agitated briefly and luminescent signal was measured with luminometer. The percent inhibition of the signal seen in cells treated with DMSO alone vs. cells treated with control compound was calculated and used to determine EC50 values (i.e., the concentration of a test compound that is required to obtain 50% of the maximum effect in the cells) for tested compounds, as shown in Example 24.

Sequence of PIM2 (Q9P1W9 whole entry, species assumed): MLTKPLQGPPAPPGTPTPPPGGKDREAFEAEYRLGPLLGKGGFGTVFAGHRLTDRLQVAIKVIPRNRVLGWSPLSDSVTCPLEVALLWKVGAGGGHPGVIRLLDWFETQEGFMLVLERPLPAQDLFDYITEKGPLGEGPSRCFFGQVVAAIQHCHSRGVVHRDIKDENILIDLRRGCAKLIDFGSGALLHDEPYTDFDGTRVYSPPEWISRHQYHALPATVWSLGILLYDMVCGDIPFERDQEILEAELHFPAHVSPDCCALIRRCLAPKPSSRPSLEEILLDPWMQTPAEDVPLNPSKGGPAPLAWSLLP

SMILES	IC50 [1]	IC50 [2]	IC50 [3]	EC50 [4]
NC1C=C(c2ccncc2Nc2cccc3cnc(-c4c(F)cccc4F)nc23)CCC1 (centres unmarked) [Example 1, N-(4-(3-aminocyclohex-1-enyl)pyridin-3-yl)-2-(2,6-difluorophenyl)quinazolin-8-amine]	0.392 µM	0.152 µM	0.078 µM	–
N[C@@H]1CN(c2ccncc2Nc2cccc3cnc(-c4c(F)cccc4F)nc23)CC[C@@H]1O [Example 2, (3R,4S)-3-amino-1-(3-(2-(2,6-difluorophenyl)-quinazolin-8-ylamino)-pyridin-4-yl)piperidin-4-ol]	0.09 µM	0.039 µM	0.018 µM	–
N[C@@H]1CN(c2ccncc2Nc2cccc3cnc(-c4c(F)cccc4F)nc23)CC[C@H]1O [Example 3, (3R,4R)-3-amino-1-(3-(2-(2,6-difluorophenyl)-quinazolin-8-ylamino)-pyridin-4-yl)piperidin-4-ol]	0.23 µM	0.184 µM	0.067 µM	–
CCO[C@@H]1C[C@H](N)CN(c2ccncc2Nc2cccc3cnc(-c4c(F)cccc4F)nc23)C1 [Example 6, N-(4-((3S,5R)-3-amino-5-ethoxypiperidin-1-yl)pyridin-3-yl)-2-(2,6-difluorophenyl)quinazolin-8-amine]	0.46 µM	1.7 µM	2.1 µM	–
N[C@@H]1CCCN(c2ccncc2Nc2cccc3cnc(-c4c(F)cccc4F)nc23)C1 [Example 7, (R)-N-(4-(3-aminopiperidin-1-yl)pyridin-3-yl)-2-(2,6-difluorophenyl)quinazolin-8-amine]	3.6 µM	2.1 µM	0.212 µM	–
NC1CC(N)CN(c2ccncc2Nc2cccc3cnc(-c4c(F)cccc4F)nc23)C1 (centres unmarked) [Example 8, 1-(3-(2-(2,6-difluorophenyl)quinazolin-8-ylamino)pyridin-4-yl)piperidine-3,5-diamine]	2.5 µM	2.3 µM	0.246 µM	–
N[C@@H]1CN(c2ccncc2Nc2cccc3cnc(-c4c(F)cccc4F)nc23)CC[C@H]1F [Example 9, N-(4-((3R,4R)-3-amino-4-fluoropiperidin-1-yl)pyridin-3-yl)-2-(2,6-difluorophenyl)quinazolin-8-amine]	0.498 µM	0.465 µM	0.17 µM	–
N[C@H]1CN(c2ccncc2Nc2cccc3cnc(-c4c(F)cccc4F)nc23)CC[C@@H]1F [Example 10, N-(4-((3S,4S)-3-amino-4-fluoropiperidin-1-yl)pyridin-3-yl)-2-(2,6-difluorophenyl)quinazolin-8-amine]	> 25 µM	4.7 µM	0.502 µM	–
NC1CCCCN(c2ccncc2Nc2cccc3cnc(-c4c(F)cccc4F)nc23)C1 (centres unmarked) [Example 11, N-(4-(3-aminoazepan-1-yl)pyridin-3-yl)-2-(2,6-difluorophenyl)quinazolin-8-amine]	> 25 µM	2.9 µM	0.468 µM	–
N[C@H]1CCCN(c2ncncc2Nc2cccc3cnc(-c4c(F)cccc4F)nc23)C1 [Example 12, (S)-N-(4-(3-aminopiperidin-1-yl)pyrimidin-5-yl)-2-(2,6-difluorophenyl)quinazolin-8-amine]	> 25 µM	5.4 µM	3.9 µM	–
N[C@H]1C[C@@H](CF)CN(c2ccncc2Nc2cccc3cnc(-c4c(F)cccc4F)nc23)C1 [Example 13, N-(4-((3S,5R)-3-amino-5-(fluoromethyl)piperidin-1-yl)pyridin-3-yl)-2-(2,6-difluorophenyl)quinazolin-8-amine]	0.02 µM	0.053 µM	0.049 µM	7.3 µM
C[C@H]1C[C@@H](N)CN(c2ccncc2Nc2cccc3cnc(-c4c(F)cccc4F)nc23)C1 [Example 14, N-(4-((3R,5S)-3-amino-5-methylpiperidin-1-yl)pyridin-3-yl)-2-(2,6-difluorophenyl)quinazolin-8-amine]	0.852 µM	0.882 µM	0.18 µM	–
C[C@@H]1C[C@H](N)CN(c2ccncc2Nc2cccc3cnc(-c4c(F)cccc4F)nc23)C1 [Example 15, N-(4-((3S,5R)-3-amino-5-methylpiperidin-1-yl)pyridin-3-yl)-2-(2,6-difluorophenyl)quinazolin-8-amine]	0.009 µM	0.018 µM	0.019 µM	2.6 µM
N[C@H]1CCCN(c2ccncc2Nc2cccc3cnc(-c4nccs4)nc23)C1 [Example 16, (S)-N-(4-(3-aminopiperidin-1-yl)pyridin-3-yl)-2-(thiazol-2-yl)quinazolin-8-amine]	1.9 µM	0.411 µM	0.149 µM	–
N[C@H]1CCCN(c2ccncc2Nc2cccc3cnc(-c4c(F)cccc4F)nc23)C1 [Example 17, (S)-N-(4-(3-aminopiperidin-1-yl)pyridin-3-yl)-2-(2,6-difluorophenyl)quinazolin-8-amine]	0.031 µM	0.021 µM	0.016 µM	–
N[C@H]1CCCN(c2ccncc2Nc2cccc3cnc(-c4ccccc4F)nc23)C1 [Example 18, (S)-N-(4-(3-aminopiperidin-1-yl)pyridin-3-yl)-2-(2-fluorophenyl)quinazolin-8-amine]	0.131 µM	0.029 µM	0.018 µM	–
N[C@H]1CCCN(c2ccncc2Nc2cccc3cnc(-c4cccc(-c5nccs5)c4)nc23)C1 [Example 19, (S)-N-(4-(3-aminopiperidin-1-yl)pyridin-3-yl)-2-(3-(thiazol-2-yl)phenyl)quinazolin-8-amine]	2 µM	0.056 µM	0.095 µM	–
